Laboratory results as given in publication PMC8642699, “Dipeptidyl peptidase-IV inhibitory action of Calebin A: An in silico and in vitro analysis” (Journal of Ayurveda and Integrative Medicine, 2021).

Target: T1, Dipeptidyl peptidase-IV (DPP-IV) (Homo sapiens, UniProt P27487)
T1 construct: gene DPP4
Experiment: Fluorogenic enzyme inhibition assay (Cayman DPP-IV inhibitor screening kit […], Gly-Pro-AMC substrate)
Assay type: biochemical

T1 sequence (P27487 39-766): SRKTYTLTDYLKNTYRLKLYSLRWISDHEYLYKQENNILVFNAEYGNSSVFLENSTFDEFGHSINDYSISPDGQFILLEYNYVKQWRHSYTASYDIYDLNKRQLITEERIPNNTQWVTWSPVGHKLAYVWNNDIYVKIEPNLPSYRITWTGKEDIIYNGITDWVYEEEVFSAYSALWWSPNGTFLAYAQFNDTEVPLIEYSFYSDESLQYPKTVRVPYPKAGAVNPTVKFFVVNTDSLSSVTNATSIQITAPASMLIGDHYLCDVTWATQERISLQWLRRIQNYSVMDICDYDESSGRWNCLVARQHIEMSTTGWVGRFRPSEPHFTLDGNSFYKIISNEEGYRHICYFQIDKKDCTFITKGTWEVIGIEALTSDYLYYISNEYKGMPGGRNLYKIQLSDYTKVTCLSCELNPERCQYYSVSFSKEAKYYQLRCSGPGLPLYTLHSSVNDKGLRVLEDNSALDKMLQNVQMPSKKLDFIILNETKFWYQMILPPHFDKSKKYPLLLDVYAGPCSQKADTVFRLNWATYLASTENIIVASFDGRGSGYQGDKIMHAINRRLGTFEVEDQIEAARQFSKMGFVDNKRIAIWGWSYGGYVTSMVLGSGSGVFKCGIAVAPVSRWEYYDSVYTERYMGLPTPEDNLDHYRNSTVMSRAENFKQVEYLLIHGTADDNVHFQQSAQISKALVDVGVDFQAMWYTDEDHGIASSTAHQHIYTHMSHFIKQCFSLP

IC50: 6.09 ± 0.41 µM
Structure (SMILES): COc1cc(/C=C/C(=O)COC(=O)/C=C/c2ccc(O)c(OC)c2)ccc1O [CA, Calebin A]
